Data from publication PMC7751175, “Lateral Gene Transfer Acts As an Evolutionary Shortcut to Efficient C4 Biochemistry” (Molecular Biology and Evolution, 2020).

Tests used:
Assay in all cases: malate dehydrogenase-coupled NADH oxidation at […] nm; nonlinear regression
Conditions in all cases: co-substrate bicarbonate, 5 mM MgCl2, 50 mM Tris-HCl pH 7.4, 25 °C; read-out: KM(PEP)
[1] = tested on: isoform 2, native co-opted ppc-1P6 PEPC (TPE1-10); format: biochemical, Alloteropsis semialata
[2] = tested on: isoform 11, ppc-1P3_LGT:A PEPC (AUS1-01); format: biochemical, Alloteropsis semialata
[3] = tested on: isoform 6, native co-opted ppc-1P3 PEPC (AANG4-8); format: biochemical, Alloteropsis angusta
[4] = tested on: isoform 5, native co-opted ppc-1P3 PEPC (MAD1-03); format: biochemical, Alloteropsis semialata
[5] = tested on: isoform 1, non-C4 ppc-1P6 PEPC (RSA5-03); format: biochemical, Alloteropsis semialata
[6] = tested on: isoform 12, Donor_C ppc-1P3_C PEPC; format: biochemical, Setaria barbata
[7] = tested on: isoform 8, ppc-1P3_LGT:M PEPC (A. cimicina); format: biochemical, Alloteropsis cimicina
[8] = tested on: isoform 10, Donor_A ppc-1P3_A PEPC; format: biochemical, Themeda triandra
[9] = tested on: isoform 7, Donor_M ppc-1P3_M PEPC; format: biochemical, Megathyrsus maximus

Km [1]: 196 ± 12.9 µM
Km [2]: 699 ± 50.4 µM
Km [3]: 324 ± 23.3 µM
Km [4]: 188 ± 12.5 µM
Km [5]: 319 ± 33.5 µM
Km [6]: 612 ± 55.9 µM
Km [7]: 710 ± 47.2 µM
Km [8]: 687 ± 72.8 µM
Km [9]: 921 ± 99.1 µM
Compound: C=C(OP(=O)(O)O)C(=O)O [PEP]
